In US11452731B2, “Method of treating and preventing loss of cognition” (ENDORECHERCHE, INC., priority 2009, dated 2022):
Where “and” joins values, the source holds several entries; their conditions need not be identical. Equal entries are not always repeated. Marks after values point to notes of the source that are not given here.

Legend:
[1] = set-up: species or system Long-Evans rats; settings: rat, in vivo
Source text: For comparison purposes, values for the blood, plasma, liver (Table 13) and uterus from each of these animals were included.

[2] = test system: ZR-75-1 human breast cancer xenografts; test: Growth and response of human ZR-75-1 breast tumors in OVX nude mice, 7 antiestrogens for 161 days with or without estrone (Example 8); type: in vivo
Method: ZR-75-1 human breast cancer cells were obtained from the American Type Culture Collection (Rockville, Md.) and cultured in phenol red-free RPMI-1640 medium. […] (Saint-Constant, Québec, Canada). The mice (5 per cage) were housed in vinyl cages equipped with air filter lids, which were kept in laminar airflow hoods and maintained under pathogen-limiting conditions. The photoperiod was 12 hours of light and 12 hours of darkness (lights on at 07:15). Cages, bedding and food (Agway Pro-Lab R-M-H Diet #4018) were autoclaved before use. Water was autoclaved and provided ad libitum. Bilateral ovariectomy was performed under isoflurane-induced anesthesia. […] Randomization and treatments were started one week later. […] The estrone implants were then removed from the animals in the ovariectomized control group (OVX) and in groups that were to receive the antiestrogen alone. […] Tamoxifen was purchased from […]) while toremifene citrate was purchased from Orion (Espoo, Finland). […] The antiestrogen suspensions at the appropriate concentration were prepared each month, stored at 4° C. and used under constant agitation. Powder stock were hermetically stored at 4° C. […] Two perpendicular diameters were recorded and tumor area (mm2) was calculated using the formula: […] Tumor response was assessed at the end of the study or at death of each animal, if it occurred during the course of the experiment. In this case, only data of mice that survived for at least half of the study ([…]) were used in the tumor response analysis.

[3] = Endometrial epithelium thickness in OVX nude mice after 161 days of antiestrogen (Example 8); type: in vivo
Source text: The 17 groups included two control groups (OVX and OVX+Estrone), seven groups supplemented with an estrone implant and treated with an antiestrogen and eight other groups that received an antiestrogen alone. The estrone implants were then removed from the animals in the ovariectomized control group (OVX) and in groups that were to receive the antiestrogen alone. […] Tamoxifen was purchased from […]) while toremifene citrate was purchased from Orion (Espoo, Finland). […] The antiestrogen suspensions at the appropriate concentration were prepared each month, stored at 4° C. and used under constant agitation. Powder stock were hermetically stored at 4° C. […] After 161 days of treatment, the remaining animals were anesthetized with isoflurane and killed by exsanguination. […] The uteri were prepared to evaluate endometrial thickness by image analysis performed with Image Pro-Plus (Media Cybernetics, Maryland, USA). […] Hematoxylin- and eosin-stained sections of mice uteri were analyzed. […] Mean epithelial cell height was measured in all animals of each group.

[4] = test system: ZR-75-1 human breast cancer xenografts; test: Tamoxifen and EM-652.HCl alone or combined on growth of ZR-75-1 xenografts in nude mice (FIG. 7); type: in vivo; settings: ZR-75-1 xenografts in nude mice
[5] = 9-month treatment with DHEA and/or EM-800 in the rat: urinary and serum markers of bone metabolism; type: in vivo
Source text: It is particularly important to indicate that the combination of DHEA and EM-800 exerted unexpected beneficial effects on important biochemical parameters of bone metabolism. […] Moreover, no effect of DHEA could be detected on daily urinary calcium or phosphorus excretion (Luo et al., 1997). EM-800 decreased the urinary hydroxyproline/creatinine ratio by 48% while, similarly to DHEA, no effect of EM-800 was seen on urinary calcium or phosphorus excretion. EM-800, moreover, had no effect on serum alkaline phosphatase activity, a marker of bone formation while DHEA increased the value of the parameter by about 75% (Luo et al., 1997).

[6] = 12-month treatment of ovariectomized rats with DHEA alone or with Flutamide or EM-800: bone histomorphometry, bone markers, serum lipids; type: in vivo, rat; settings: added to DHEA, OVX rats, 12 months
[7] = test system: ZR-75-1 human breast cancer xenografts; test: Growth and response of human ZR-75-1 breast tumor xenografts in estrone-supplemented OVX nude mice, DHEA and/or EM-800 for 9.5 months (Example 1); type: in vivo; settings: 9.5 months; for Category of response: Complete (%) / Category of response: Complete (Number) / Category of response: Partial (%) / Category of response: Partial (Number) / Category of response: Progression (%) / Category of response: Progression (Number) / Category of response: Stable (%) / Category of response: Stable (Number) / Average tumor weight at end of experiment: E1-supplemented
[8] = Uterine, vaginal and body weight in estrone-supplemented OVX nude mice (Example 1); type: in vivo; settings: E1-supplemented
Method: DHEA was dissolved in 50% ethanol 50% propylene glycol. […] Tumors were measured once a week with Vernier calipers.

[9] = 12-week oral EM-800 (0.5 mg/kg) in intact rats: serum 17β-estradiol, mammary gland and endometrium histology; type: in vivo, rat; settings: 12 weeks
Method: The lobules (L) consist of a few alveoli. Insert. High magnification showing alveoli. • b) Animal treated with EM-800 (0.5 mg/kg, b w per day) for 12 weeks. […] Insert. High magnification showing atrophied alveolar cells.
The luminal epithelium (LE) is characterized by columnar epithelial cells while the glandular epithelium (GE) is rather cuboidal. The stroma contains several cellular elements and collagen fibers. • b) Animal treated with EM-800 (0.5 mg/kg, b w per day) during 12 weeks. […] The glandular epithelial cells have unstained cytophasm with no sign of activity. The stroma is highly cellular due to reduction in intercellular elements of the stroma.

[10] = absence of estrone, 200 μg daily, 161 days
[11] = estrone-supplemented, 50 μg daily, 161 days
[12] = DHEA 10 mg, EM-800 75 μg, alone or combined
[13] = DHEA 0.3 mg, EM-800 15 μg, or EM-800 15 μg + DHEA 0.3 mg
[14] = DHEA 1.0 mg, EM-800 50 μg, or EM-800 15 μg + DHEA 1.0 mg
[15] = DHEA 3.0 mg, EM-800 100 μg, or EM-800 15 μg + DHEA 3.0 mg
[16] = EM-800 15 μg, or EM-800 15 μg + DHEA 0.3 mg
[17] = EM-800 50 μg, or EM-800 15 μg + DHEA 1.0 mg
[18] = EM-800 100 μg, or EM-800 15 μg + DHEA 3.0 mg

CC1=C(c2ccc(O)cc2)[C@H](c2ccc(OCCN3CCCCC3)cc2)Oc2cc(O)ccc21 [EM-652]
accessibility to the CNS [1]: very poor accessibility

CC/C(=C(\c1ccccc1)c1ccc(OCCN(C)C)cc1)c1ccccc1 [Tamoxifen, (Z)-2-[4-(1,2-diphenyl-1-butenyl)phenoxy]-N,N-dimethylethanamine]
increase of average tumor size over baseline (agonistic effect) [2, 10]: 196%
tumors in the progression category, % [2, 10]: 62%
tumors in the progression category, number of total [2, 10]: 16 of 26
average tumor size above pretreatment values ([2]; estrone-stimulated, 50 μg oral daily, 23 weeks): 87%
progressing tumors, % of tumors [2, 11]: 65%
progressing tumors, number of total [2, 11]: 17 of 26
inhibition of the stimulatory effect of estrone on epithelial height ([3]; 50 μg daily oral, estrone stimulation): 32%
height of uterine epithelial cells, % of the OVX control group value ([3]; 200 μg daily, absence of estrone): 155%
ENDOMETRIAL EPITHELIUM THICKNESS (μm) ± SEM ([3]; OVX + E1, antiestrogen 50 μg daily): 33.44^b,d ± 0.04 μm
ENDOMETRIAL EPITHELIUM THICKNESS (μm) ± SEM ([3]; OVX without E1, antiestrogen 200 μg daily): 28.47^b,d ± 0.05 μm
stimulatory effect on tumor growth [4]: approximately 100%

CC1=C(c2ccc(OC(=O)C(C)(C)C)cc2)[C@H](c2ccc(OCCN3CCCCC3)cc2)Oc2cc(OC(=O)C(C)(C)C)ccc21 [EM-800, (+)-7-pivaloyloxy-3-(4′-pivaloyloxyphenyl)-4-methyl-2-(4″-(2′″-piperidi-noethoxy)phenyl)-2H-benzopyran]
decrease of urinary hydroxyproline/creatinine ratio (marker of bone resorption) [5]: 48%
effect on daily urinary calcium or phosphorus excretion [5]: no effect
increase of serum alkaline phosphatase activity (marker of bone formation) [5]: no effect
Serum tALP [5, 12]: 114.11 ± 11.26 IU/L
Urine HP/Cr [5, 12]: 6.81 ± 0.84 μmol/mmol
Urine calcium [5, 12]: 17.44 ± 4.5 μmol/24 h/100 g
Urine phosphorus [5, 12]: 102.03 ± 25.13 μmol/24 h/100 g
reversal of the stimulatory effect of DHEA on serum alkaline phosphatase [6]: no significant effect
Inhibition of estrone-stimulated ZR-75-1 tumor size ([7]; daily DHEA 0.3 mg or EM-800 15 μg): 88% and 87.5%
Inhibition of estrone-stimulated ZR-75-1 tumor size ([7]; daily DHEA 1.0 mg or EM-800 50 μg): 93% and 93.5%
Inhibition of estrone-stimulated ZR-75-1 tumor size ([7]; daily DHEA 3.0 mg or EM-800 100 μg): 94%
Category of response: Complete (%) [7, 13]: 29.4%
Category of response: Complete (Number) [7, 13]: 5
Category of response: Partial (%) [7, 13]: 5.9%
Category of response: Partial (Number) [7, 13]: 1
Category of response: Progression (%) [7, 13]: 35.3%
Category of response: Progression (Number) [7, 13]: 6
Category of response: Stable (%) [7, 13]: 29.4%
Category of response: Stable (Number) [7, 13]: 5
Category of response: Complete (%) [7, 14]: 25.0%
Category of response: Complete (Number) [7, 14]: 4
Category of response: Partial (%) [7, 14]: 18.8%
Category of response: Partial (Number) [7, 14]: 3
Category of response: Progression (%) [7, 14]: 25.0%
Category of response: Progression (Number) [7, 14]: 4
Category of response: Stable (%) [7, 14]: 31.2%
Category of response: Stable (Number) [7, 14]: 5
Category of response: Complete (%) [7, 15]: 50.0%
Category of response: Complete (Number) [7, 15]: 8
Category of response: Partial (%) [7, 15]: 0 (0) %
Category of response: Partial (Number) [7, 15]: 0 (0)
Category of response: Progression (%) [7, 15]: 31.2%
Category of response: Progression (Number) [7, 15]: 5
Category of response: Stable (%) [7, 15]: 18.8%
Category of response: Stable (Number) [7, 15]: 3
Average tumor weight at end of experiment ([7]; daily DHEA 0.3 mg, EM-800 15 μg, or EM-800 15 μg + DHEA 0.3 mg): 0.08 ± 0.03 g
Average tumor weight at end of experiment ([7]; daily DHEA 1.0 mg, EM-800 50 μg, or EM-800 15 μg + DHEA 1.0 mg): 0.03 ± 0.01 g
Average tumor weight at end of experiment ([7]; daily DHEA 3.0 mg, EM-800 100 μg, or EM-800 15 μg + DHEA 3.0 mg): 0.04 ± 0.03 g
UTERINE WEIGHT [8, 16]: 49 ± 3 mg
VAGINAL WEIGHT [8, 16]: 23 ± 1 mg
UTERINE WEIGHT [8, 17]: 36 ± 2 mg
VAGINAL WEIGHT [8, 17]: 15 ± 1 mg
UTERINE WEIGHT [8, 18]: 32 ± 1 mg
VAGINAL WEIGHT [8, 18]: 11 ± 1 mg
elevation of circulating 17β-estradiol versus intact animals ([9]; EM-800 0.5 mg/kg orally daily): 50%
effect on the endometrium (histology) ([9]; EM-800 0.5 mg/kg): marked atrophy
effect on the mammary gland (histology) ([9]; EM-800 0.5 mg/kg): marked atrophy
circulating levels of 17β-estradiol ([9]; intact rats, EM-800 0.5 mg/kg orally daily): 143.5 ± 7.8 pg/mL
